From PubChem BioAssay (NCI)
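Interpolation was linear, between the two tested concentrations surrounding the appropriate level; five concentrations were tested over 48 hours in 96-well plates. The concentration for full growth arrest is given as TGI.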

Key:
Assay in all cases: NCI tumour cell line growth inhibition, 48 h
HOP-62 NSCLC = tested on: HOP-62 NSCLC
NCI-H23 lung = tested on: NCI-H23 lung
786-0 renal = tested on: 786-0 renal
M14 melanoma = tested on: M14 melanoma
SN12C renal = tested on: SN12C renal
A498 renal = tested on: A498 renal
A549 NSCLC = tested on: A549 NSCLC
DLD-1 colon = tested on: DLD-1 colon
U251 CNS = tested on: U251 CNS
KM12 colon = tested on: KM12 colon
M19-MEL melanoma = tested on: M19-MEL melanoma
HCC-2998 colon = tested on: HCC-2998 colon
IGROV1 ovarian = tested on: IGROV1 ovarian
OVCAR-5 ovarian = tested on: OVCAR-5 ovarian
SR leukemia = tested on: SR leukemia
HT29 colon = tested on: HT29 colon
RPMI-8226 leukemia = tested on: RPMI-8226 leukemia
MALME-3M melanoma = tested on: MALME-3M melanoma
SNB-75 CNS = tested on: SNB-75 CNS
DMS 273 small cell lung = tested on: DMS 273 small cell lung
UO-31 renal = tested on: UO-31 renal
NCI-H226 lung = tested on: NCI-H226 lung
SNB-19 CNS = tested on: SNB-19 CNS
RXF 393 renal = tested on: RXF 393 renal
SF-539 CNS = tested on: SF-539 CNS
SNB-78 CNS = tested on: SNB-78 CNS
K-562 leukemia = tested on: K-562 leukemia
KM20L2 colon = tested on: KM20L2 colon
SK-OV-3 ovarian = tested on: SK-OV-3 ovarian
SW-620 colon = tested on: SW-620 colon
COLO 205 colon = tested on: COLO 205 colon
MOLT-4 leukemia = tested on: MOLT-4 leukemia
XF 498 CNS = tested on: XF 498 CNS
OVCAR-4 ovarian = tested on: OVCAR-4 ovarian
CCRF-CEM leukemia = tested on: CCRF-CEM leukemia
DMS 114 small cell lung = tested on: DMS 114 small cell lung
OVCAR-8 ovarian = tested on: OVCAR-8 ovarian
SK-MEL-28 melanoma = tested on: SK-MEL-28 melanoma
EKVX NSCLC = tested on: EKVX NSCLC
SK-MEL-5 melanoma = tested on: SK-MEL-5 melanoma
ACHN renal = tested on: ACHN renal
SK-MEL-2 melanoma = tested on: SK-MEL-2 melanoma
HCT-15 colon = tested on: HCT-15 colon
NCI-H522 lung = tested on: NCI-H522 lung
LXFL 529 NSCLC = tested on: LXFL 529 NSCLC
SF-268 CNS = tested on: SF-268 CNS
HL-60(TB) leukemia = tested on: HL-60(TB) leukemia
RXF-631 renal = tested on: RXF-631 renal
TK-10 renal = tested on: TK-10 renal
NCI-H460 lung = tested on: NCI-H460 lung
LOX IMVI melanoma = tested on: LOX IMVI melanoma
UACC-62 melanoma = tested on: UACC-62 melanoma
HOP-18 NSCLC = tested on: HOP-18 NSCLC
OVCAR-3 ovarian = tested on: OVCAR-3 ovarian
CAKI-1 renal = tested on: CAKI-1 renal
UACC-257 melanoma = tested on: UACC-257 melanoma
SF-295 CNS = tested on: SF-295 CNS
HOP-92 NSCLC = tested on: HOP-92 NSCLC
HCT-116 colon = tested on: HCT-116 colon
SN12K1 renal = tested on: SN12K1 renal
P388 leukemia = tested on: P388 leukemia
MCF7 breast = tested on: MCF7 breast
P388/ADR leukemia = tested on: P388/ADR leukemia
NCI/ADR-RES ovarian = tested on: NCI/ADR-RES ovarian

Structure (SMILES): O=C(O)c1cc2ccc(Cl)cc2c(O)c1C1=CCCCC1
- TGI (HOP-62 NSCLC): > 100 µM
- TGI (NCI-H23 lung): 95.9 µM
- TGI (786-0 renal): > 100 µM
- TGI (M14 melanoma): > 100 µM
- TGI (SN12C renal): > 100 µM
- TGI (A498 renal): 79.1 µM
- TGI (A549 NSCLC): > 100 µM
- TGI (DLD-1 colon): > 100 µM
- TGI (U251 CNS): > 100 µM
- TGI (KM12 colon): > 100 µM
- TGI (M19-MEL melanoma): > 100 µM
- TGI (HCC-2998 colon): > 100 µM
- TGI (IGROV1 ovarian): > 100 µM
- TGI (OVCAR-5 ovarian): > 100 µM
- TGI (SR leukemia): > 100 µM
- TGI (HT29 colon): > 100 µM
- TGI (RPMI-8226 leukemia): > 100 µM
- TGI (MALME-3M melanoma): > 100 µM
- TGI (SNB-75 CNS): 34.7 µM
- TGI (DMS 273 small cell lung): 68.8 µM
- TGI (UO-31 renal): > 100 µM
- TGI (NCI-H226 lung): 68.3 µM
- TGI (SNB-19 CNS): > 100 µM
- TGI (RXF 393 renal): > 100 µM
- TGI (SF-539 CNS): > 100 µM
- TGI (SNB-78 CNS): > 100 µM
- TGI (K-562 leukemia): > 100 µM
- TGI (KM20L2 colon): > 100 µM
- TGI (SK-OV-3 ovarian): > 100 µM
- TGI (SW-620 colon): > 100 µM
- TGI (COLO 205 colon): > 100 µM
- TGI (MOLT-4 leukemia): > 100 µM
- TGI (XF 498 CNS): 51 µM
- TGI (OVCAR-4 ovarian): 57.2 µM
- TGI (CCRF-CEM leukemia): > 100 µM
- TGI (DMS 114 small cell lung): 63.6 µM
- TGI (OVCAR-8 ovarian): > 100 µM
- TGI (SK-MEL-28 melanoma): > 100 µM
- TGI (EKVX NSCLC): > 100 µM
- TGI (SK-MEL-5 melanoma): 81.9 µM
- TGI (ACHN renal): > 100 µM
- TGI (SK-MEL-2 melanoma): 63.8 µM
- TGI (HCT-15 colon): > 100 µM
- TGI (NCI-H522 lung): 92.9 µM
- TGI (LXFL 529 NSCLC): > 100 µM
- TGI (SF-268 CNS): > 100 µM
- TGI (HL-60(TB) leukemia): > 100 µM
- TGI (RXF-631 renal): > 100 µM
- TGI (TK-10 renal): > 100 µM
- TGI (NCI-H460 lung): > 100 µM
- TGI (LOX IMVI melanoma): > 100 µM
- TGI (UACC-62 melanoma): 77.5 µM
- TGI (HOP-18 NSCLC): > 100 µM
- TGI (OVCAR-3 ovarian): > 100 µM
- TGI (CAKI-1 renal): 96.4 µM
- TGI (UACC-257 melanoma): 88.5 µM
- TGI (SF-295 CNS): > 100 µM
- TGI (HOP-92 NSCLC): 85.9 µM
- TGI (HCT-116 colon): > 100 µM

Structure (SMILES): Cc1cc(C)c(C2=NO[C@@H]3[C@H]2C(=O)C=C2N(Cc4ccccc4)CCO[C@@]23O)c(C)c1
- TGI (HOP-62 NSCLC): > 100 µM
- TGI (NCI-H23 lung): > 100 µM
- TGI (SN12C renal): > 100 µM
- TGI (A498 renal): > 100 µM
- TGI (A549 NSCLC): > 100 µM
- TGI (DLD-1 colon): > 100 µM
- TGI (U251 CNS): > 100 µM
- TGI (KM12 colon): > 100 µM
- TGI (M19-MEL melanoma): > 100 µM
- TGI (HCC-2998 colon): > 100 µM
- TGI (IGROV1 ovarian): > 100 µM
- TGI (OVCAR-5 ovarian): > 100 µM
- TGI (HT29 colon): > 100 µM
- TGI (RPMI-8226 leukemia): > 100 µM
- TGI (MALME-3M melanoma): > 100 µM
- TGI (SN12K1 renal): > 100 µM
- TGI (SNB-75 CNS): > 100 µM
- TGI (DMS 273 small cell lung): > 100 µM
- TGI (UO-31 renal): > 100 µM
- TGI (NCI-H226 lung): > 100 µM
- TGI (P388 leukemia): > 100 µM
- TGI (SNB-19 CNS): > 100 µM
- TGI (RXF 393 renal): > 100 µM
- TGI (SF-539 CNS): > 100 µM
- TGI (SNB-78 CNS): > 100 µM
- TGI (K-562 leukemia): > 100 µM
- TGI (KM20L2 colon): > 100 µM
- TGI (MCF7 breast): > 100 µM
- TGI (SK-OV-3 ovarian): > 100 µM
- TGI (SW-620 colon): > 100 µM
- TGI (P388/ADR leukemia): > 100 µM
- TGI (COLO 205 colon): > 100 µM
- TGI (MOLT-4 leukemia): > 100 µM
- TGI (XF 498 CNS): > 100 µM
- TGI (OVCAR-4 ovarian): > 100 µM
- TGI (CCRF-CEM leukemia): > 100 µM
- TGI (OVCAR-8 ovarian): > 100 µM
- TGI (SK-MEL-28 melanoma): > 100 µM
- TGI (EKVX NSCLC): > 100 µM
- TGI (SK-MEL-5 melanoma): > 100 µM
- TGI (SK-MEL-2 melanoma): > 100 µM
- TGI (HCT-15 colon): > 100 µM
- TGI (NCI-H522 lung): > 100 µM
- TGI (SF-268 CNS): > 100 µM
- TGI (HL-60(TB) leukemia): > 100 µM
- TGI (NCI-H460 lung): > 100 µM
- TGI (LOX IMVI melanoma): > 100 µM
- TGI (NCI/ADR-RES ovarian): > 100 µM
- TGI (UACC-62 melanoma): > 100 µM
- TGI (HOP-18 NSCLC): > 100 µM
- TGI (OVCAR-3 ovarian): > 100 µM
- TGI (CAKI-1 renal): > 100 µM
- TGI (UACC-257 melanoma): > 100 µM
- TGI (SF-295 CNS): > 100 µM
- TGI (HOP-92 NSCLC): > 100 µM
- TGI (HCT-116 colon): > 100 µM
